Where a chain is given by its changes, count along the chain named. Like-named read-outs stand apart in the source and are kept apart here.
How the values were obtained:
[1] = target: T1, mA1AR (Mus musculus, UniProt Q60612); assay: Adenosine receptor binding, mA1AR; details: for Binding selectivity for mA1AR: compared to mA3AR; for Ki: (m), read-out: A1AR % inhibition or Ki (converted)
T1 sequence (Q60612 1-326): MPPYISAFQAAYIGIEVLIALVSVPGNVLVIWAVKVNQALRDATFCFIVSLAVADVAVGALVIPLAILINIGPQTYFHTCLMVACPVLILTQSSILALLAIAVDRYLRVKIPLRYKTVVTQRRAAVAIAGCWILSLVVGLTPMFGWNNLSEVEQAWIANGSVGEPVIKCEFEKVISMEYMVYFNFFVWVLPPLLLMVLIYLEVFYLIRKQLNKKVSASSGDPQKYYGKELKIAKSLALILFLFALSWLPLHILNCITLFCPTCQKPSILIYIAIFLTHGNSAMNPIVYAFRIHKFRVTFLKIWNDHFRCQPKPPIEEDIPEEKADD

[2] = target: T1, mA1AR; assay: Guanine nucleotide ([35S]GTPγS) binding assay; assay type: biochemical
Procedure: (§1) cLogP was calculated using ChemDraw Professional, v. 16.0. Binding selectivity for mA1Ar is expressed in terms of fold, compared to mA3AR (Data from Table 1).

[3] = target: T2, mA3AR (Mus musculus, UniProt Q61618); assay: Guanine nucleotide ([35S]GTPγS) binding assay; assay type: biochemical; details: effect of 10 μM test compound as % of 10 μM 16
T2 sequence (Q61618 1-319): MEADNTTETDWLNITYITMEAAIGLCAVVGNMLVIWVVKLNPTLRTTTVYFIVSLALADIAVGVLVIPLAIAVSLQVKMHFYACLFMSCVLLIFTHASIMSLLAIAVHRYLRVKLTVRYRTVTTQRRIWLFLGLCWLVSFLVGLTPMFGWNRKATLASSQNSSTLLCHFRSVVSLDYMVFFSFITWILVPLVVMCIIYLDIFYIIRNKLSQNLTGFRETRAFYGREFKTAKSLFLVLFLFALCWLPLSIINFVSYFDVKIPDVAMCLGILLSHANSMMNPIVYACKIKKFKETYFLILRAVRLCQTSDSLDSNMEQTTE
Procedure: as §1

[4] = system: wild-type C57BL/6J mice; assay: Hypothermia (Tb by telemetry) after ip dosing; assay type: in vivo, mouse; details: 3 mg/kg ip; average from dosing to 60 min; mean±SD
Procedure: (§2) Compounds were dosed ip. Tb and activity were measured by telemetry and the averages from dosing to 60 min were calculated. […] Data are for the highest dose used and are mean±SD from 3 to 22 mice/group (usually 5-7). P values are unpaired t-Test vs vehicle-treated controls assayed simultaneously. Vehicle data are mean±SD from all (n=83) vehicle treated mice.

[5] = system: wild-type C57BL/6J mice; assay: Locomotor activity by telemetry after ip dosing; assay type: in vivo, mouse; details: 3 mg/kg ip; average from dosing to 60 min; mean±SD
Procedure: as §2

[6] = Plasma protein binding at 10 μM; assay type: in vitro ADME, human; details: unbound percent ± standard deviation
Procedure: (§3) Plasma protein binding in human plasma, mouse plasma, and rat plasma was determined. Verapamil and warfarin served as positive controls. The results are expressed as unbound percent±standard deviation.

[7] = Plasma protein binding at 10 μM; assay type: in vitro ADME, mouse; details: unbound percent ± standard deviation
Procedure: as §3

[8] = Plasma protein binding at 10 μM; assay type: in vitro ADME, rat; details: unbound percent ± standard deviation
Procedure: as §3

[9] = system: mice; assay: Tail suspension test, immobility time; assay type: in vivo, mouse; details: 0.3 mg/kg i.p., 1 hour after administration, 6 min suspension
Procedure: 1 hour after administration of compounds, the mice were individually suspended by their tails for 6 minutes, and the average amount of time the mice were immobile was determined. […]

[10] = Stability in simulated gastric fluid; assay type: physicochemical; details: pH 1.60, 37° C., after 120 min
[11] = target: T3, rA1AR (Rattus norvegicus, UniProt P25099); assay: Adenosine receptor binding, rA1AR; details: (r), read-out: A1AR % inhibition or Ki (converted)
T3 sequence (P25099 1-326): T1 sequence (Q60612 1-326) with E151V, A155D, I157R, E316D, I319L, D325E

[12] = target: T4, hA2AAR (Homo sapiens, UniProt P29274); assay: Radioligand binding in membranes of HEK293 cells expressing hA2AAR; details: read-out: A2AAR % inhibition; for Ki: (h), values without % sign (Ki)
T4 construct: expressed in transfected cells; host or cells: HEK293
T4 sequence (P29274 whole entry): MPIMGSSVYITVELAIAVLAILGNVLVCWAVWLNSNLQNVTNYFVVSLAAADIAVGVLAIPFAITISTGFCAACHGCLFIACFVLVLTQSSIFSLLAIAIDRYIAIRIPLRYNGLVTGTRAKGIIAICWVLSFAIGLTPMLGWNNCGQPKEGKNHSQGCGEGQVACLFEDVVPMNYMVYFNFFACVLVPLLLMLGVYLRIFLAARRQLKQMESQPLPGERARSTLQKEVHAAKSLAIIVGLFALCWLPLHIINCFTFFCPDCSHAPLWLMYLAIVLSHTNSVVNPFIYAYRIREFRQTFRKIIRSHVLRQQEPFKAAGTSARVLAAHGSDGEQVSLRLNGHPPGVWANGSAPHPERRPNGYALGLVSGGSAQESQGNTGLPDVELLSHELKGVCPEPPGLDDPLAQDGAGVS

[13] = target: rA2AAR (Rattus norvegicus, UniProt P30543); assay: Adenosine receptor binding, rA2AAR; details: (r); values without % sign (Ki); read-out: A2AAR % inhibition (converted)
rA2AAR, sequence (P30543 whole entry): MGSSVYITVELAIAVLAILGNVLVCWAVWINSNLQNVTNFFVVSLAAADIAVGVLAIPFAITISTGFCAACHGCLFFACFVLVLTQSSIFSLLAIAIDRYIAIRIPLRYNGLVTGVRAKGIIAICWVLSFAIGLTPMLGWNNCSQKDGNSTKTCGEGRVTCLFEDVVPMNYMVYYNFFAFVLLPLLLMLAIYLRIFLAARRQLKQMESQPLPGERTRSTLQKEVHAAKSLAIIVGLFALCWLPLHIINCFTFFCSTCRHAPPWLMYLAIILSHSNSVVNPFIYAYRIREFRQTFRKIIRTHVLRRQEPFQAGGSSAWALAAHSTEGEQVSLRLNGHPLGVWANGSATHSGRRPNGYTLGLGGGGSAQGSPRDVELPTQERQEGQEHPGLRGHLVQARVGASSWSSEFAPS

[14] = target: T5, hA3AR (Homo sapiens, UniProt P0DMS8); assay: Radioligand binding in membranes of CHO cells expressing hA3AR
T5 construct: expressed in transfected cells; host or cells: CHO
T5 sequence (P0DMS8 1-318): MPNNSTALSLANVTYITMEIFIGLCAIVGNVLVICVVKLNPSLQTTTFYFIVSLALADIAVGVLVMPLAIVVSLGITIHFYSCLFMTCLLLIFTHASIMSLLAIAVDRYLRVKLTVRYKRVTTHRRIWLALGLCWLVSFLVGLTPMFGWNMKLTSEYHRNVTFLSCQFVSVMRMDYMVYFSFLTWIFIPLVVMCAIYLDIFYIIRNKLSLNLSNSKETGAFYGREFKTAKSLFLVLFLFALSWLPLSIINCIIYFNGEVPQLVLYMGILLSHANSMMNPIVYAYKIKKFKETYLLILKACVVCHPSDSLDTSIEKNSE

[15] = target: T2, mA3AR; assay: Adenosine receptor binding, mA3AR; details: (m); Ki; read-out: A3AR % inhibition or Ki (converted)
[16] = target: rA3AR (Rattus norvegicus, UniProt P28647); assay: Adenosine receptor binding, rA3AR; details: (r), read-out: A3AR % inhibition or Ki (converted)
rA3AR, sequence (P28647 whole entry): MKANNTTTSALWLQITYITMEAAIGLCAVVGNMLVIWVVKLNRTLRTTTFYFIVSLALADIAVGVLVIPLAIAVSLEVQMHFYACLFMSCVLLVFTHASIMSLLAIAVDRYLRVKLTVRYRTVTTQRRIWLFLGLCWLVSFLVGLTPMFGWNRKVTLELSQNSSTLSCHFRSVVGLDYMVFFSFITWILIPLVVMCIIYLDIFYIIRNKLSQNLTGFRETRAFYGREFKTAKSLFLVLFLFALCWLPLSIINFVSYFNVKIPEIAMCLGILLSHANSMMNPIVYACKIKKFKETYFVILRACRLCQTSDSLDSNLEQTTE

[17] = target: T6, hA1AR (Homo sapiens, UniProt P30542); assay: Radioligand binding in membranes of CHO cells expressing hA1AR, [3H]N6-R-phenylisopropyladenosine; details: (h); Ki; read-out: A1AR % inhibition or Ki
T6 construct: expressed in transfected cells; host or cells: CHO
T6 sequence (P30542 1-326): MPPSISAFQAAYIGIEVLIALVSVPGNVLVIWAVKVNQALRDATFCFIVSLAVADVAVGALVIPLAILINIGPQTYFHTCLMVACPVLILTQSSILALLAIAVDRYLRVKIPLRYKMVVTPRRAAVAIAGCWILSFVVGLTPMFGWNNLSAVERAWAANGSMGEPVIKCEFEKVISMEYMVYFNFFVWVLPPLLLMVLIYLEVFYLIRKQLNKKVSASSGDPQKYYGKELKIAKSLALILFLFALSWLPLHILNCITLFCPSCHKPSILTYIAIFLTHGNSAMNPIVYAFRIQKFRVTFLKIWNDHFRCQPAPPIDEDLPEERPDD

[18] = target: dopamine transporter (DAT) (Homo sapiens, UniProt Q01959); assay: Off-target interaction determined by the PDSP; assay type: binding; details: read-out: Off-target, receptor (h, unless noted) (Ki, μM): DAT
dopamine transporter (DAT), sequence (Q01959 whole entry): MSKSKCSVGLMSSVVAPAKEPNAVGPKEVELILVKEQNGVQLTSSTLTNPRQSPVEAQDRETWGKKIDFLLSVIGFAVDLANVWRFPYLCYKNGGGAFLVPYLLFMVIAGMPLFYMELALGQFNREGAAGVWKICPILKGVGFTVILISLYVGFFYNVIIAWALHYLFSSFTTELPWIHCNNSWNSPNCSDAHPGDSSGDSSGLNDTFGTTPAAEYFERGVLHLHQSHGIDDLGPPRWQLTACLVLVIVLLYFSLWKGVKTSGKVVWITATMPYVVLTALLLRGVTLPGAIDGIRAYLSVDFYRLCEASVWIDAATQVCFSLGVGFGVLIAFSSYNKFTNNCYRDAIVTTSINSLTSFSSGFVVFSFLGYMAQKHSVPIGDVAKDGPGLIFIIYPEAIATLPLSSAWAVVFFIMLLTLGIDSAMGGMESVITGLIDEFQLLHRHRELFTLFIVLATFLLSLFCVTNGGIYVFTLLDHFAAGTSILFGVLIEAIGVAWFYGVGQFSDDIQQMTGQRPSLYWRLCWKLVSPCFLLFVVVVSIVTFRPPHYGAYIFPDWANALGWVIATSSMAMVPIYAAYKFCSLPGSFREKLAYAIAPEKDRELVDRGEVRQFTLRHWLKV

[19] = target: norepinephrine transporter (NET) (Homo sapiens, UniProt P23975); assay: Off-target interaction determined by the PDSP; assay type: binding; details: read-out: Off-target, receptor (h, unless noted) (Ki, μM): NET
norepinephrine transporter (NET), sequence (P23975 whole entry): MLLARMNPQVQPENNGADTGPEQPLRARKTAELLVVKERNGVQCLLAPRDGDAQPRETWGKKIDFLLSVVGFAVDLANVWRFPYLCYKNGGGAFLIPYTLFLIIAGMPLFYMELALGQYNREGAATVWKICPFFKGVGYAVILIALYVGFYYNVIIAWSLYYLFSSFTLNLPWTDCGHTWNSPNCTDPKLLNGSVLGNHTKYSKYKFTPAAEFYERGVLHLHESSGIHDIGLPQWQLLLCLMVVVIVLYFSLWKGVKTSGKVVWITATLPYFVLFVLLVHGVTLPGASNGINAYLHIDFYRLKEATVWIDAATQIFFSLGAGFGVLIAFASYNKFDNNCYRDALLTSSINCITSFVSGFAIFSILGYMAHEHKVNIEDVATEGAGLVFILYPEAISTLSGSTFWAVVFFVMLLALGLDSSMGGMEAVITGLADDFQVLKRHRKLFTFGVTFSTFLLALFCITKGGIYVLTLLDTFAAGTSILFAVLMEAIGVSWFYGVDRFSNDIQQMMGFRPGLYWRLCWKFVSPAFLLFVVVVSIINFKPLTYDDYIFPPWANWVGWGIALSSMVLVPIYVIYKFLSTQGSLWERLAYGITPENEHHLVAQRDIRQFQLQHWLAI

[20] = target: sigma receptor σ2 (UniProt Q5BJF2); assay: Off-target interaction determined by the PDSP; assay type: binding, human; details: read-out: Off-target, receptor (h, unless noted) (Ki, μM): σ2
[21] = target: histamine receptor H1 (Homo sapiens, UniProt P35367); assay: Off-target interaction determined by the PDSP; assay type: binding; details: read-out: Off-target, receptor (h, unless noted) (Ki, μM): H1
histamine receptor H1, sequence (P35367 whole entry): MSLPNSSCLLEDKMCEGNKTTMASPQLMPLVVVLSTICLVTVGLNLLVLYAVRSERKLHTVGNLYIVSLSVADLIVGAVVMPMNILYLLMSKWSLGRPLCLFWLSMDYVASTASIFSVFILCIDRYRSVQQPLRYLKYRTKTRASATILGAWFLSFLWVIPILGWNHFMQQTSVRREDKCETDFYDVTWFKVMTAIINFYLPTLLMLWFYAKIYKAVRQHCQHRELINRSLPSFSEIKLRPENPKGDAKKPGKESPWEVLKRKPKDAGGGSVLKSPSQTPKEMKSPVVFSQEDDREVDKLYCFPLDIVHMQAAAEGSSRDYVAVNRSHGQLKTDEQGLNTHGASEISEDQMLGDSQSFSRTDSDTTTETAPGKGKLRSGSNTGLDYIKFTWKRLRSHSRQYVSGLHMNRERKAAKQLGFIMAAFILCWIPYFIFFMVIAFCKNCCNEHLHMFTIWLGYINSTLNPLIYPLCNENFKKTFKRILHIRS

[22] = target: sigma receptor σ1 (Homo sapiens, UniProt Q99720); assay: Off-target interaction determined by the PDSP; assay type: binding; details: read-out: Off-target, receptor (h, unless noted) (Ki, μM): σ1
sigma receptor σ1, sequence (Q99720 whole entry): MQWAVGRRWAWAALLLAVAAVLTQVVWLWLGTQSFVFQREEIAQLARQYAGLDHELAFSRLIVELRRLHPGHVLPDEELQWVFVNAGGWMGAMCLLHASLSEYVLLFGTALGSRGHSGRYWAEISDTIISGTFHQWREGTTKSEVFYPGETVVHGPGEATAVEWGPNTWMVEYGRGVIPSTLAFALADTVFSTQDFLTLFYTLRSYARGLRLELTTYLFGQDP

[23] = target: T7, serotonin receptor 5HT2C (Homo sapiens, UniProt P28335); assay: Off-target interaction determined by the PDSP; assay type: binding; details: read-out: Off-target, receptor (h, unless noted) (Ki, μM): 5HT2C
T7 sequence (P28335 33-458): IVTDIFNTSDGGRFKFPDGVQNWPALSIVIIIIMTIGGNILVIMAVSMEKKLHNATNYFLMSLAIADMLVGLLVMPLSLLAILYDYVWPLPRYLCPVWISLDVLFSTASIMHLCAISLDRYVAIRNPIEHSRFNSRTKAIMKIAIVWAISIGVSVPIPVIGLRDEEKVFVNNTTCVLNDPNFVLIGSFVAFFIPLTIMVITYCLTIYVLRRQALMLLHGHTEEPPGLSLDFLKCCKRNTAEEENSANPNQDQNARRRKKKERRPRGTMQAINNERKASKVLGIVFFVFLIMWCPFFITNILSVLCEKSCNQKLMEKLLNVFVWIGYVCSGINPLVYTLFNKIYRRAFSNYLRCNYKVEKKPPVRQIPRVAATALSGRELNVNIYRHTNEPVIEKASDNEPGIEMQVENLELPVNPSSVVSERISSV

[24] = target: rat brain benzodiazepine receptors (BZP); assay: Off-target interaction determined by the PDSP; assay type: binding; details: read-out: Off-target, receptor (h, unless noted) (Ki, μM): BZP (r)
[25] = target: serotonin receptor 5HT2B (Homo sapiens, UniProt P41595); assay: Off-target interaction determined by the PDSP; assay type: binding; details: read-out: Off-target, receptor (h, unless noted) (Ki, μM): 5HT2B
serotonin receptor 5HT2B, sequence (P41595 whole entry): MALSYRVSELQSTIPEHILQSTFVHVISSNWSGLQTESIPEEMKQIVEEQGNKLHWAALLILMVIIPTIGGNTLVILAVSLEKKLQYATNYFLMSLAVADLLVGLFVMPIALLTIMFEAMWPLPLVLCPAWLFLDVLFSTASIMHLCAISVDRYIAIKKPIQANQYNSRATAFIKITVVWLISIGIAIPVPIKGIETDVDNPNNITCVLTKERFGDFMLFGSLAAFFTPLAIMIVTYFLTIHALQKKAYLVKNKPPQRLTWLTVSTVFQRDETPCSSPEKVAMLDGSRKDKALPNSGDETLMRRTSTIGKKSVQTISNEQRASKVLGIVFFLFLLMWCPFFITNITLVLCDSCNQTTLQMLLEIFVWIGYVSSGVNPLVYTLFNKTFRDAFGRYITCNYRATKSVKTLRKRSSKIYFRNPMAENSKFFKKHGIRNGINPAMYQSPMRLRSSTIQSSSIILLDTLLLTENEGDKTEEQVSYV

Structure (SMILES) | Binding selectivity for mA1AR [1] | Emax at 10 µM [2] [%] | Emax at 10 µM [3] [%] | Tb (° C.) [4] [°C] | Activity (counts) [5] [counts] | human, % free [6] [%] | mouse, % free [7] [%] | rat, % free [8] [%] | Ki [1] [nM] | Ki [12] [nM] | Ki [13] [nM] | Ki [14] [nM] | Ki [15] [nM] | Ki [17] [nM] | Ki [20] [µM] | other results
OC[C@H]1O[C@@H](n2cnc3c(NC(C4CCC4)C4CCC4)nc(Cl)nc32)[C@H](O)C1O (stereo in doubt) [Compound 12, (2R,3R,4R,5R)-2-(2-Chloro-6-((dicyclobutylmethyl)amino)-9H-purin-9-yl)-5-(hydroxymethyl)tetrahydrofuran-3,4-diol] | (1000) fold | 90 ± 19 | 63 ± 5 | 35.5 ± 0.8 | 13.5 ± 3.5 | 5.81 ± 0.39 | 4.74 ± 0.67 | 4.64 ± 0.06 | – | – | – | – | – | – | – | average immobility time relative to mice treated with 10 mg/kg of fluoxetine [9]: approximately ⅔; average immobility time relative to the control group of mice [9]: approximately ½; initial amount present in simulated gastric fluid [10]: 100%
O[C@@H]1[C@H](O)[C@@H](CCl)O[C@H]1n1cnc2c(NC3CC4CCC3C4)ncnc21 (some centres unmarked) [Compound 3, reference compound] | – | – | – | – | – | – | – | – | 0.14 | > 10000 | 477 | 915 ± 299 | 424 | – | – | Ki [11]: 0.34 nM; Ki [16]: 282 nM
OC[C@H]1O[C@@H](n2cnc3c(NC(C4CC4)C4CC4)ncnc32)[C@H](O)[C@@H]1O [Compound 8] | – | – | – | – | – | – | – | – | – | 1470 ± 380 | 1370 | 41.3 ± 5.3 | – | 0.85 ± 0.27 | – | –
OC[C@H]1O[C@@H](n2cnc3c(NC(C4CCC4)C4CCC4)ncnc32)[C@H](O)[C@@H]1O [Compound 9, (2R,3R,4R,5R)-2-(6-((Dicyclobutylmethyl)amino)-9H-purin-9-yl)-5-(hydroxymethyl)tetrahydrofuran-3,4-diol] | – | – | – | – | – | – | – | – | – | 3550 ± 440 | – | – | 897 | 2.14 ± 0.52 | – | Ki [18]: 1.78 µM; Ki [19]: 4.82 µM
Nc1ncnc2c1ncn2[C@@H]1O[C@H](C(=O)NC2CC2)[C@@H](O)[C@H]1O [Compound 17, reference compound] | – | – | – | – | – | – | – | – | – | 50 ± 10 | – | – | – | 1.9 | 4.35 | Ki ([14]; (h), Ki, read-out: A3AR % inhibition or Ki): 180 ± 50 nM; Ki [21]: 7.88 µM
OC[C@@]12C[C@@H]1[C@@H](n1cnc3c(NC(C4CCC4)C4CCC4)ncnc31)[C@H](O)[C@@H]2O [Compound 24, (1R,2R,3S,4R,5S)-4-(6-((Dicyclobutylmethyl)amino)-9H-purin-9-yl)-1-(hydroxymethyl)bicyclo[3.1.0]hexane-2,3-diol] | (1730) fold | 97 ± 11 | 92 ± 3 | 36.2 ± 0.4 | 18.1 ± 6.8 | 14.6 ± 1.3 | 27.5 ± 1.7 | 17.8 ± 1.2 | 0.53 | – | – | – | 918 | 22.7 ± 3 | 0.753 | inhibition at 10 µM [12]: 34 ± 1%; inhibition at 10 µM ([14]; read-out: A3AR % inhibition or Ki): 51 ± 6%; Ki [22]: 1.79 µM; Ki [23]: 1.32 µM; Ki [24]: 4.08 µM; Ki [25]: 0.214 µM

Source: patent US12378248B2 (The United States of America, as represented by the …, priority 2018, dated 2025)
